From the supplement of paper PMC10307832

Experiments:
Test in all cases: relative viability (nuclei count vs DMSO), 5 days (fraction); higher = more cells survive
[1] = compound: Nc1ccccc1NC(=O)c1ccc(CNC(=O)OCc2cccnc2)cc1 [Entinostat] + CCNC(=O)c1noc(-c2cc(C(C)C)c(O)cc2O)c1-c1ccc(CN2CCOCC2)cc1 [Luminespib] (partner 0.01 µM)
Procedure, shortened: (§1)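 Relative viability was taken as the ratio of nuclei in treated wells to nuclei in vehicle wells. Lung cancer cell lines in 1536-well plates received compounds by pin tool one day after seeding, either one drug alone or a fixed anchor-drug dose plus five library-drug doses (not always all listed) in √10 steps. Nuclei were counted on 4× images after 5 days of treatment, and values are medians of duplicate plates.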

[2] = compound: C1COCCN1C2=NC(=NC3=C2OC4=C3C=CC=N4)C5=CC(=CC=C5)NC(=O)C6=CN=C(C=C6)N + Cc1nc(Nc2ncc(C(=O)Nc3c(C)cccc3Cl)s2)cc(N2CCN(CCO)CC2)n1 [Dasatinib] (partner 0.075 µM)
Procedure, shortened: as §1

[3] = compound: Nc1ccccc1NC(=O)c1ccc(CNC(=O)OCc2cccnc2)cc1 [Entinostat] + CS(=O)(=O)CCNCc1ccc(-c2ccc3ncnc(Nc4ccc(OCc5cccc(F)c5)c(Cl)c4)c3c2)o1 [Lapatinib] (partner 2 µM)
Procedure, shortened: as §1

[4] = compound: CN1CCC(CNc2ccc3ncc(-c4cccc(OC(F)(F)F)c4)n3n2)CC1 [SGI-1776] + CS(=O)(=O)N1CCN(Cc2cc3nc(-c4cccc5[nH]ncc45)nc(N4CCOCC4)c3s2)CC1 [Pictilisib] (partner 1 µM)
Procedure, shortened: as §1

| Cell Line | relative viability ([1]; first compound 0.02 µM) | relative viability ([1]; first compound 0.06325 µM) | relative viability ([1]; first compound 0.2 µM) | relative viability ([1]; first compound 0.6325 µM) | relative viability ([1]; first compound 2 µM) | relative viability ([2]; first compound 0.02 µM) | relative viability ([2]; first compound 0.06325 µM) | relative viability ([2]; first compound 0.2 µM) | relative viability ([2]; first compound 0.6325 µM) | relative viability ([2]; first compound 2 µM) | relative viability ([3]; first compound 0.02 µM) | relative viability ([3]; first compound 0.06325 µM) | relative viability ([3]; first compound 0.2 µM) | relative viability ([3]; first compound 0.6325 µM) | relative viability ([3]; first compound 2 µM) | relative viability ([4]; first compound 0.08 µM) | relative viability ([4]; first compound 0.8 µM) | relative viability ([4]; first compound 2.53 µM) | relative viability ([4]; first compound 8 µM) |
| --- | --- | --- | --- | --- | --- | --- | --- | --- | --- | --- | --- | --- | --- | --- | --- | --- | --- | --- | --- |
| NCI-H1437 | 0.829 | 0.853 | 0.552 | 0.301 | 0.257 | 0.33 | 0.431 | 0.272 | 0.385 | 0.264 | 0.671 | 0.399 | 0.297 | 0.183 | 0.126 | 0.435 | 0.517 | 0.367 | 0.219 |
| NCI-H2347 | 0.337 | 0.378 | 0.348 | 0.193 | 0.081 | 0.291 | 0.257 | 0.349 | 0.321 | 0.323 | 1.05 | 0.983 | 0.784 | 0.502 | 0.369 | 0.614 | 0.941 | 0.734 | 0.614 |
| NCI-H1666 | 1.05 | 1.19 | 1.04 | 0.701 | 0.445 | 0.865 | 0.761 | 0.658 | 0.632 | 0.517 | 0.624 | 0.564 | 0.566 | 0.282 | 0.264 | 0.568 | 0.403 | 0.404 | 0.313 |
| NCI-H1993 | 0.968 | 1.08 | 0.925 | 0.771 | 0.275 | 0.553 | 0.552 | 0.594 | 0.572 | 0.492 | 0.749 | 0.911 | 0.867 | 0.728 | 0.69 | 0.711 | 0.665 | 0.839 | 0.703 |
| COR-L23 | 0.697 | 0.535 | 0.49 | 0.296 | 0.108 | 0.505 | 0.604 | 0.451 | 0.472 | 0.327 | 0.967 | 0.995 | 0.905 | 0.579 | 0.176 | 0.916 | 0.868 | 0.821 | 0.667 |
| LU99A | 0.286 | 0.255 | 0.322 | 0.211 | 0.281 | 0.538 | 0.533 | 0.37 | 0.347 | 0.182 | 0.957 | 1.04 | 0.863 | 0.617 | 0.592 | 0.29 | 0.339 | 0.309 | 0.28 |
| NCI-H460 | 0.0255 | 0.0353 | 0.0291 | 0.0258 | 0.0328 | 0.521 | 0.361 | 0.417 | 0.414 | 0.185 | 1 | 0.761 | 0.462 | 0.0242 | 0.0172 | 0.376 | 0.343 | 0.42 | 0.289 |
| NCI-H650 | 0.824 | 0.76 | 0.829 | 0.672 | 0.427 | 0.475 | 0.453 | 0.416 | 0.442 | 0.385 | 1.02 | 1.24 | 0.976 | 0.543 | 0.199 | 0.958 | 0.731 | 0.868 | 0.644 |
| NCI-H1975 | 0.238 | 0.209 | 0.217 | 0.199 | 0.13 | 0.362 | 0.388 | 0.298 | 0.296 | 0.187 | 0.812 | 0.801 | 0.669 | 0.274 | 0.189 | 0.382 | 0.311 | 0.246 | 0.203 |
| NCI-H1355 | 0.724 | 0.611 | 0.616 | 0.504 | 0.418 | 0.755 | 0.79 | 0.71 | 0.659 | 0.5 | 1.03 | 0.978 | 0.798 | 0.568 | 0.513 | 0.488 | 0.494 | 0.439 | 0.364 |
| NCI-H1755 | 0.483 | 0.459 | 0.678 | 0.528 | 0.415 | 0.499 | 0.408 | 0.409 | 0.346 | 0.256 | 1.02 | 1.02 | 0.95 | 0.532 | 0.264 | 0.386 | 0.442 | 0.367 | 0.299 |
| NCI-H2009 | 1.05 | 0.967 | 0.974 | 0.771 | 0.762 | 0.245 | 0.278 | 0.215 | 0.219 | 0.215 | 0.954 | 0.984 | 0.827 | 0.685 | 0.396 | 0.764 | 0.93 | 0.682 | 0.474 |
| LK-2 | 0.18 | 0.192 | 0.178 | 0.188 | 0.178 | 0.253 | 0.284 | 0.245 | 0.245 | 0.283 | 0.98 | 1.05 | 1.01 | 0.476 | 0.459 | 0.504 | 0.563 | 0.47 | 0.308 |
| NCI-H3122 | 0.129 | 0.141 | 0.102 | 0.0843 | 0.073 | 0.796 | 0.786 | 0.787 | 0.868 | 0.657 | 1.02 | 1.07 | 1.09 | 0.917 | 0.893 | 0.594 | 0.717 | 0.632 | 0.515 |
